Patent publication US4837207A, “Diastereoisomers of n^6 -endo-bicyclo[2.2.1]heptyladenosine as antihypertensives with selective action” (priority 1987, dated 1989)

What was measured:
[1] = Antihypertensive evaluation (AHP3); type: in vivo; details: AHP3 antihypertensive assay; Table 2; read-out: ED40 (Dose causing a 40 nm drop in blood pressure)
Excerpt: *Dose causing a […] drop in blood pressure, mg/kg.

[2] = target: T1, A1 adenosine receptor (Rattus norvegicus, UniProt P25099); test: adenosine A1 receptor binding affinity; details: Table 1, n = 2 (mixture, VII'), n = 1 (VII"), read-out: A1 IC50 ± SE
T1 construct: from tissue
T1 sequence (P25099 1-326): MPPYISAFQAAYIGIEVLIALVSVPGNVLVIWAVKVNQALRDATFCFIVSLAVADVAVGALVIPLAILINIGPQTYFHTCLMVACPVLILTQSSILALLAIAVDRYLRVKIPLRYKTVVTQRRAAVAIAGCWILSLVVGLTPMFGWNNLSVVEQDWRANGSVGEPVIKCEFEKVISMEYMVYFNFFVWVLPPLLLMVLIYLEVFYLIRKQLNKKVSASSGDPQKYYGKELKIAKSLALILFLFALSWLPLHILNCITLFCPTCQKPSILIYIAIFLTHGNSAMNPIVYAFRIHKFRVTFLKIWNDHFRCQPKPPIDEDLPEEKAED

| IC50 [2] | Structure (SMILES) | ED (40 mm drop in blood pressure) [1] |
| --- | --- | --- |
| 0.738 ± 0.088 nM | OC[C@H]1O[C@@H](n2cnc3c(NC4CC5CCC4C5)ncnc32)[C@H](O)[C@@H]1O (mixture of isomers) [Diastereomeric mixture, N^6-endo-bicyclo[2.2.1]heptyl adenosine] | 0.6 mg/kg |
|  | OC[C@H]1O[C@@H](n2cnc3c(N[C@H]4C[C@H]5CC[C@@H]4C5)ncnc32)[C@H](O)[C@@H]1O [Example 1 (VII'), (1R-endo)-N-Bicyclo[2.2.1]hept-2-yl adenosine] | 0.16 mg/kg |
| 2.63 nM | OC[C@H]1O[C@@H](n2cnc3c(N[C@@H]4C[C@@H]5CC[C@H]4C5)ncnc32)[C@H](O)[C@@H]1O [Example 2 (VII"), (1S-endo)-N-Bicyclo[2.2.1]hept-2-yl adenosine] | 0.7 mg/kg |
